Experimental data taken from patent US20230339927A1, “ATR INHIBITORS AND USES THEREOF” (ANTENGENE DISCOVERY LIMITED, priority 2020, published 2023).
pIC50: −log10 of the molar value.

Tests used:
[1] = system: LoVo (CCL-229) human colorectal cancer cells; test: Tumor cell anti-proliferation assay (CTG assay); format: cell-based; details: 96 h incubation, CellTiter-Glo, IC50 (Y=50%)
Excerpt: Assay 2: Tumor Cell Anti-proliferation Assay (CTG Assay)
Human colorectal cancer cells HT-29 (HTB-38) and LoVo (CCL-229) were selected for the CTG assay, the two cell lines were originally obtained from the American Type Culture Collection (ATCC). Add FBS and appropriate additives into base medium to prepare complete medium, then briefly rinse the cell layer with 0.25% (w/v) Trypsin-0.038% (w/v) EDTA solution to remove all traces of serum that contains trypsin inhibitor, after that, add appropriate volume of Trypsin-EDTA solution to flask and observe cells under an inverted microscope until cell layer is dispersed, at last, add appropriate volume of complete growth medium and aspirate cells by gently pipetting. Collect and count numbers with Vi-cell XR and adjust cell density, seed cells into 96-well opaque-walled clear bottom tissue-culture treated plates in the CO2 incubator for 20-24 hours. All the test compounds will be at 10 mM in DMSO. Compounds are then added to the cell media in 3-fold serial dilutions, the final DMSO concentration is 0.5%. Incubate plates for 96 h at 5% CO2, 37° C. Before the measurement, transfer the appropriate volume of CellTiter-Glo Buffer into the amber bottle containing CellTiter-Glo substrate to reconstitute the lyophilized enzyme/substrate mixture, mix gently, this forms the CellTiter-Glo Reagent (Promega Cat. No. G7573). Equilibrate the plate and its contents to room temperature for approximately 30 minutes, then add 100 µL of CellTiter-Glo Reagent to the assay plate, mix contents for 2 minutes on an orbital shaker to induce cell lysis, incubate at room temperature for 10 minutes to stabilize luminescent signal, at last paste the clear bottom with white back seal and record luminescence with Enspire. IC50 and GI50 values were calculated with XLFit curve fitting software using 4 Parameter Logistic Model Y=Bottom + (Top-Bottom)/(1+(IC50/X)^HillSlope).
The following Table 3 provides the IC50 (Y=50%) values for exemplary compounds of Formula (I).

ATR kinase = target: T1, ATR kinase (Homo sapiens, UniProt Q13535); test: ATR inhibition assay (mobility shift assay, FAM-RAD17 phosphorylation); format: biochemical; details: substrate FAM-RAD17, ATR kinase (Eurofins)
T1 construct: purchased Eurofins 14-953
Description: Assay 1: ATR Inhibition Assay
The assay was developed and conducted at Chempartner. All the test compounds were dissolved in 100% DMSO at concentration of 20 mM, then prepare compounds and conducted the assay as follows:
1) Transfer 80 µl20 mM compound to 40 µl of 100% DMSO in a 96-well plate.
2) Serially dilute the compound by transferring 20 µl to 60 µl of 100% DMSO in the next well and so forth for a total of 10 concentrations.
3) Add 100 µl of 100% DMSO to two empty wells for no compound control and no enzyme control in the same 96-well plate. Mark the plate as source plate.
4) Transfer 40 µl of compound from source plate to a new 384-well plate as the intermediate plate.
5) Transfer 60 nl compounds to assay plate by Echo.
No. D14JP007N) into Kinase base buffer (50 mM HEPES, pH 7.5; 0.0015% Brij-35; 0.01% Triton) to prepare 2x enzyme solution, then add 10 µl of 2x enzyme solution to each well of the 384-well assay plate, incubate at room temperature for 10 min.
8) Incubate at 28° C. for specified period of time. Add 40 µl of stop buffer (100 mM HEPES, pH 7.5; 0.015% Brij-35; 0.2% Coating Reagent #3; 50 mM EDTA) to stop reaction.
9) Collect data on Caliper. Convert conversion values to inhibition values.
wherein “max” stands for DMSO control; “min” stands for low control.
Fit the data in XLFit excel add-in version 5.4.0.8 to obtain IC50 values. Equation used is: […]
wherein X means concentration in a format not transformed to logarithms.

T1 sequence (Q13535 whole entry): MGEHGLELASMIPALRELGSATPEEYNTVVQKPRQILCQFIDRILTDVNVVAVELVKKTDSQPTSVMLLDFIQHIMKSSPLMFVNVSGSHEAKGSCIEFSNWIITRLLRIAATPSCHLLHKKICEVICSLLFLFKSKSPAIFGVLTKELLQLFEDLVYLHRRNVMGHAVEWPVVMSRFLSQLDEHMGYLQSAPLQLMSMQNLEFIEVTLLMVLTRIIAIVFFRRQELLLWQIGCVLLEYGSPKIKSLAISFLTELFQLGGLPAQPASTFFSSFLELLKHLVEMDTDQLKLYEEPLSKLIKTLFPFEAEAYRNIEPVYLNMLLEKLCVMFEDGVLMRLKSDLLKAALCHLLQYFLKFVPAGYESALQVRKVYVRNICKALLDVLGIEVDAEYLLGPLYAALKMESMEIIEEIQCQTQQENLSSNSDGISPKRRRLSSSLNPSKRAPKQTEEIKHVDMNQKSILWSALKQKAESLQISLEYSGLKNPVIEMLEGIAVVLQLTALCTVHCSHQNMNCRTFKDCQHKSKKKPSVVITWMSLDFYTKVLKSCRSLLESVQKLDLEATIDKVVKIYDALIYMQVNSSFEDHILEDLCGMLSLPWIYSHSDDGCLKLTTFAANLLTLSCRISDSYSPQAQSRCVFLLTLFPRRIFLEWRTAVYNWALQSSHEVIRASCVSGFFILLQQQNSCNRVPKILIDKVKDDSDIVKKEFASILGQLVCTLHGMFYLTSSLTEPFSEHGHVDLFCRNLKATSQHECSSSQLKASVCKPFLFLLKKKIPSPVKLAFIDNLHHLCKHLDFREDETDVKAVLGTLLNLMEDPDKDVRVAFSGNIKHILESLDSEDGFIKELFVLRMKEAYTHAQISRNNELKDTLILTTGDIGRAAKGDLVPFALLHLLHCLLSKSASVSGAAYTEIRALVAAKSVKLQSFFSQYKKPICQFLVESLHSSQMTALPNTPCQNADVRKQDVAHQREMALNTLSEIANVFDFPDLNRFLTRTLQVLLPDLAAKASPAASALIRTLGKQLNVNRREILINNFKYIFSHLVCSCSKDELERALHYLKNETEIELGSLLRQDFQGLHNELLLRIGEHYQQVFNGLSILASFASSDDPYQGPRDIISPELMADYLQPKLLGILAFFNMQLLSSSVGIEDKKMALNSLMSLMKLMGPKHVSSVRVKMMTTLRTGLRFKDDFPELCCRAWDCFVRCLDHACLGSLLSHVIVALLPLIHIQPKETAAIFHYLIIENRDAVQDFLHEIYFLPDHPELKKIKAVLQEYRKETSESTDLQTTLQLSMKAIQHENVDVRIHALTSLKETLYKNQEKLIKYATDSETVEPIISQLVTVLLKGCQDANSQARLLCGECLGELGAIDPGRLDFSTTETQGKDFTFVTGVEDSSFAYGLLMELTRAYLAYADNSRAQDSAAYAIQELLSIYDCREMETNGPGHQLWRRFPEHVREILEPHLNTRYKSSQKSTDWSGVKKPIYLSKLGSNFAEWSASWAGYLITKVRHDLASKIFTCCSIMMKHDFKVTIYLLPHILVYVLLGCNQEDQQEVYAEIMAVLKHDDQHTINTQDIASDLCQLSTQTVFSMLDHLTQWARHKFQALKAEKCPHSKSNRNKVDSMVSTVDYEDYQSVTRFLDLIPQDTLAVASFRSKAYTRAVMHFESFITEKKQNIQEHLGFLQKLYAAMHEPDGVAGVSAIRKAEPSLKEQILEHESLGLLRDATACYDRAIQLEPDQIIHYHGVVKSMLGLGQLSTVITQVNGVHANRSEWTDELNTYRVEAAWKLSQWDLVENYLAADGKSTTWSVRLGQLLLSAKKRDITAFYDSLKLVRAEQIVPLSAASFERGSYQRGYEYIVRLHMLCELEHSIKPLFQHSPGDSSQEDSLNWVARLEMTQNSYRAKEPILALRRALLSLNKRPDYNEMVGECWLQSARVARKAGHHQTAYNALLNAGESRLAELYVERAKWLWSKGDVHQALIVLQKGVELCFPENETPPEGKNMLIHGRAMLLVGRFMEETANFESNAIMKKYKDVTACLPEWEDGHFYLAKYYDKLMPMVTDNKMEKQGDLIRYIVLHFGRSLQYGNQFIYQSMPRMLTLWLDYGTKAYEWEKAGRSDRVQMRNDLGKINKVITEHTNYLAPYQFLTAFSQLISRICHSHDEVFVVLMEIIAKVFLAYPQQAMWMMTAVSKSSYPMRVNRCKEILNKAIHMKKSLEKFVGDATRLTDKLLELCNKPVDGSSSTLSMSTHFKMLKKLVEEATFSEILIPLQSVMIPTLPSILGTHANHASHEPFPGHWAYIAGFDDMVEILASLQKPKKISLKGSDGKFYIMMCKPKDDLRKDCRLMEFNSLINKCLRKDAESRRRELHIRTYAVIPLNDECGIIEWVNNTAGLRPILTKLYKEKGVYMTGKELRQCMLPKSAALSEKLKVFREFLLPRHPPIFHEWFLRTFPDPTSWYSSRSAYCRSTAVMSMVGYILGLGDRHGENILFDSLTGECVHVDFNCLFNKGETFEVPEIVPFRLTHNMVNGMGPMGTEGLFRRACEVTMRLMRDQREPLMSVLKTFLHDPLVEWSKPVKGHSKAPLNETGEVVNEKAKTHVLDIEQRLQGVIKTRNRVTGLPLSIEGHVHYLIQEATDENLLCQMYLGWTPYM
T1 sequence (Q8WXE1 whole entry partner): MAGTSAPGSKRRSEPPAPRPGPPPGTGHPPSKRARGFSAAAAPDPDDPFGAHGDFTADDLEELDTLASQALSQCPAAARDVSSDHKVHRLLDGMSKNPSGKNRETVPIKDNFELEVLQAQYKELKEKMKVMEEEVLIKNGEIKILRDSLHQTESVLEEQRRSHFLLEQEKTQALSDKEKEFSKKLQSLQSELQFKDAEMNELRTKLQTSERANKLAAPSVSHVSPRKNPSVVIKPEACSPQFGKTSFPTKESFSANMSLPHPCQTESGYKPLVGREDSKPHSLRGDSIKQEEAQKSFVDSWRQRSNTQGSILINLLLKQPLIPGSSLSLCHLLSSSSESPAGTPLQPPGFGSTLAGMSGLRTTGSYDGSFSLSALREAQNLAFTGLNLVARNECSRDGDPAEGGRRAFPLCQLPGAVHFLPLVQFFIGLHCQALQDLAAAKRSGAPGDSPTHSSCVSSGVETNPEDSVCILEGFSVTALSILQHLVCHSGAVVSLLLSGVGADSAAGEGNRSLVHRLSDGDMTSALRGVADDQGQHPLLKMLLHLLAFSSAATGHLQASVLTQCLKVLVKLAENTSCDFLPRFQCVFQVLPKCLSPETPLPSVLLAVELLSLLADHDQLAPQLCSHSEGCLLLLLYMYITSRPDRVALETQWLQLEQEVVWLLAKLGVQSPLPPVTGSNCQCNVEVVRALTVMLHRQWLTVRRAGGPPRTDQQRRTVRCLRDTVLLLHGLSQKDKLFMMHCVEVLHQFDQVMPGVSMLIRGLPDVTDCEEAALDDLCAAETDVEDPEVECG

Row | Compound | pIC50 [1] | pIC50 (ATR kinase)
1 | Cc1cc(Nc2nc(N3CCOC[C@H]3C)cc(C3(S(C)(=O)=O)CCOCC3)n2)[nH]n1 [Compound 12, (R)-N-(3-methyl-1H-pyrazol-5-yl)-4-(3-methylmorpholino)-6-(4-(methylsulfonyl)tetrahydro-2H-pyran-4-yl)pyrimidin-2-amine] | 6.21 | 7.89
2 | Cc1cc(Nc2nc(N3CCOC[C@H]3C)cc(C(C)(C)S(C)(=O)=O)n2)[nH]n1 [Compound 8, (R)-N-(3-methyl-1H-pyrazol-5-yl)-4-(3-methylmorpholino)-6-(2-(methylsulfonyl)propan-2-yl)pyrimidin-2-amine] | 6.40 | 7.88
3 | Cc1cc(Nc2nc(N3CCOC[C@H]3C)cc(C3(C#N)CC3)n2)[nH]n1 [Compound 9, (R)-1-(2-((3-methyl-1H-pyrazol-5-yl)amino)-6-(3-methylmorpholino)pyrimidin-4-yl)cyclopropanecarbonitrile] | 6.27 | 7.66
4 | Cc1cc(Nc2cc(C(C)(C)C#N)cc(N3CCOC[C@H]3C)n2)[nH]n1 [Compound 25, 2-methyl-2-{2-[(3-methyl-1H-pyrazol-5-yl)amino]-6-[(3R)-3-methylmorpholin-4-yl]pyridin-4-yl}propanenitrile] | 6.51 | 7.93
5 | Cc1cc(Nc2nc(N3CCOC[C@H]3C)cc(C(C)(C)C#N)n2)[nH]n1 [Compound 10, (R)-2-methyl-2-(2-((3-methyl-1H-pyrazol-5-yl)amino)-6-(3-methylmorpho-lino)pyrimidin-4-yl)propanenitrile] | 6.58 | 8.00

Other lines, results leading:

Row | pIC50 [1] | pIC50 (ATR kinase) | Compound
6 | 6.31 | 7.91 | C[C@@H]1COCCN1c1cc(C2(C#N)CCCCC2)cc(Nc2ccn[nH]2)n1 [Compound 38, 1-{2-[(3R)-3-methylmorpholin-4-yl]-6-[(1H-pyrazol-5-yl)amino]pyridin-4-yl} cyclohexane-1-carbonitrile]
7 | 6.19 | 7.28 | C[C@@H]1COCCN1c1cc(C2(O)CCCCC2)cc(Nc2ccn[nH]2)n1 [Compound 43, (R)-1-(2-((1H-pyrazol-5-yl)amino)-6-(3-methylmorpholino)pyridin-4-yl) cyclohexan-1-ol]
8 | 6.48 | 7.84 | C[C@@H]1COCCN1c1cc(C2(S(C)(=O)=O)CC2)cc(Nc2ccn[nH]2)n1 [Compound 1, (R)-6-(3-methylmorpholino)-4-(1-(methylsulfonyl)cyclopropyl)-N-(1H-pyrazol-5-yl)pyridin-2-amine]
9 | 6.37 | 7.77 | C[C@@H]1COCCN1c1cc(C(C)(C)C#N)cc(Nc2ccn[nH]2)n1 [Compound 24, (R)-2-(2-((1H-pyrazol-5-yl)amino)-6-(3-methylmorpholino)pyridin-4-yl)-2-methylpropanenitrile]
